Experimental data taken from publication PMC8699021, “Which Properties Allow Ligands to Open and Bind to the Transient Binding Pocket of Human Aldose Reductase?” (Biomolecules, 2021).

Legend:
[1] = target: T1, ALR-2 (human aldose reductase, EC 1.1.1.21) (Homo sapiens, UniProt P15121); assay: ITC direct titration; X-ray; type: binding
T1 construct: gene AKR1B1; one molecule per asymmetric unit
Excerpt: ITC direct titration; X-ray on ALR-2 (human aldose reductase, EC 1.1.1.21)

[2] = target: T1, ALR-2 (human aldose reductase, EC 1.1.1.21); assay: ITC direct titration; type: binding
Excerpt: ITC direct titration on ALR-2 (human aldose reductase, EC 1.1.1.21)

| Kd [1] [µM] | Kd [2] [µM] | SMILES |
| --- | --- | --- |
| 5 ± 0.6 | – | C[S+]([O-])c1cccc(CNC(=O)c2ccc(F)cc2OCC(=O)O)c1 (stereo not drawn) [compound 3, 2-(5-fluoro-2-((3-(methylsulfinyl)benzyl)carbamoyl)phenoxy)acetic acid] |
| 2.3 ± 0.3 | – | O=C(O)COc1cc(F)ccc1C(=O)NCc1cccc(B(O)O)c1 [compound 4, 2-(2-((3-boronobenzyl)carbamoyl)-5-fluorophenoxy) acetic acid] |
| – | 0.42 ± 0.08 | O=C(O)COc1cc(F)ccc1C(=O)NCc1nc2ccccc2s1 [compound 9, inhibitor 9] |
